Measurements as given in patent US20010053796A1, “Delta-aminolevulinic acid for prevention and treatment of infection microorganisms and parasite” (priority 2000, published 2001).
Marks after values point to notes of the source that are not given here.

Tests used:
Staphylococcus epidermis [1] = test: Prevention effect for artificial infection (abdominal injection of bacteria); type: in vivo, Sebastes schlegeli; settings: for Mortality during Cultivation: dead of 20 fish
Experimental: (§1) The water temperature was maintained at 20° C. (±2° C. ) throughout the experiment. […]
Bastardhalibut and Sebastes schlegeli were infected by […] Staphylococcus epidermis through abdominal injection with the same method of fish breeding; δ-aminolevulinic acid treatment and artificial carried out in Experiment 1 and 2. Each experimental fish was moved to fish tanks for monitoring and monitored for mortality according to infection for 2 weeks. […] The treated group, with δ-aminolevulinic acid by tank administraion method and oral administration method, has shown high viability.

marine birnavirus (MABV) = test: Change of virus infection value (TCID50) in culture cells; type: cell-based; settings: for Infection value by MABV: 8 mM
Source text: In this experiment, change of infection value by virus according to δ-aminolevulinic acid treatment was examined by TCID50 using fish cell line for marine birnavirus (MABV) which infects major marine cultivating fish species, Bastardhalibut, Pagrus major and Sebastes schlegeli and acts as a cause for mass mortality. The virus used in this experiment was isolated from Bastardhalibut of a fish farm nearby Yeosu. Virus infection value was checked in CHSE-214 cell and then used as experimental virus solution. Virus incubation solution and δ-aminolevulinic acid diluted solution were combined with same amount (8 mL) and reacted for 30 min. and then, inoculated to culture cell and incubated at 20° C. Temporary change of virus infection value was compared with that of HBSS reaction virus solution (control).

Staphylococcus sp. [2] = test: Prevention effect for artificial infection (abdominal injection of bacteria); type: in vivo, Sebastes schlegeli; settings: for Mortality during Cultivation: dead of 20 fish
Experimental: as §1
(§2) Bastardhalibut and Sebastes schlegeli were infected by Staphylococcus sp. by abdominal injection with the same method of fish breeding δ-aminolevulinic acid treatment and artificial infection carried out in Experiment 1 and 2. Each experimental fish was moved to fish tanks for monitoring and monitored for mortality according to infection for 2 weeks.

Pseudomonas sp. [3] = test: as above; type: in vivo, Bastardhalibut; settings: for Mortality during Cultivation: dead of 20 fish
Experimental: The water temperature was maintained at 20° C. (±2° C. ) throughout the experiment.
As the same method of above Experiment 1, fishes of both control group and experiment group were prepared and artificially infected by direct abdominal injection of Edwardsiella tarda 10^5 CFU per 1 fish. Each experimental fish was moved to fish tanks for monitoring and monitored for mortality according to infection for 2 weeks and viability after 2 weeks.
as §2, with “by Pseudomonas” for “by Staphylococcus”, “sp. through” for “sp. by”, “fish breeding;” for “fish breeding”

Vibrio anguillarum = test: Treatment effect of infected fry by oral administration in feed; type: in vivo, Sebastes schlegeli; settings: 50 fish, Bastardhalibut
Experimental: (§3) In this example, fry of Bastardhalibut and Sebastes schlegeli (mean body weight 2 g), 50 per each breeding tank, were preliminary-bred for 1 week and stabilized. […] The artificial infection methods were carried out through the digestion method. Pathogenic organisms were applied into fish tanks and introduced into seawater for an hour, wherein the concentration of organisms adjusted to 10^4 CFU/mL. Treatment conditions are as follows; after artificial infection, infected fish were moved to fish tanks and kept in the infection period for 3 days. On the fourth day of infection, 0.1˜50 ppm of δ-aminolevulinic acid for feed were added. The fish were bred for 2 weeks after exchanging with clean seawater and the mortality of fish according to infection was monitored. In the control groups, after each bacteria were identically infected through digestion method, mortality of Bastardhalibut and Sebastes schlegeli according to bacteria infection was identified while breeding with marketing assorted feed without δ-aminolevulinic acid. As a result of this experiment, δ-aminolevulinic acid-treated groups have shown high viability in both Bastardhalibut (Table 20˜Table 23) and Sebastes schlegeli (Table 24˜Table 27).

Streptococcus sp. = test: as above; type: in vivo, Sebastes schlegeli; settings: 50 fish, Bastardhalibut
Experimental: as §3

Staphylococcus epidermis [4] = test: as above; type: in vivo, Sebastes schlegeli; settings: 50 fish, Bastardhalibut
Experimental: as §3

Staphylococcus sp. [5] = test: as above; type: in vivo, Sebastes schlegeli; settings: 50 fish, Bastardhalibut
Experimental: as §3

Edwardsiella tarda = test: as above; type: in vivo, Sebastes schlegeli; settings: 50 fish, Bastardhalibut
Experimental: as §3

Pseudomonas sp. [6] = test: as above; type: in vivo, Sebastes schlegeli; settings: 50 fish, Bastardhalibut
Experimental: as §3

[7] = orally, 1.0 ppm in feed, Bastardhalibut
[8] = orally, 10 ppm in feed, Bastardhalibut
[9] = orally, 100 ppm in feed, Bastardhalibut
[10] = to fish tanks, 0.01 ppm, Bastardhalibut
[11] = to fish tanks, 0.1 ppm, Bastardhalibut
[12] = to fish tanks, 1.0 ppm, Bastardhalibut
[13] = feed 0.1 ppm from 4th day of infection
[14] = feed 1.0 ppm from 4th day of infection
[15] = feed 10 ppm from 4th day of infection
[16] = feed 50 ppm from 4th day of infection

For `NCC(=O)CCC(=O)O` [δ-aminolevulinic acid], the Viability (Staphylococcus epidermis [1]; orally, 0.1 ppm in feed) was 50%, the “Mortality during Cultivation” value (Staphylococcus epidermis [1]; orally, 0.1 ppm in feed) was 10 and the Viability (Staphylococcus epidermis [1]; orally, 1.0 ppm in feed) was 50%. The “Mortality during Cultivation” value (Staphylococcus epidermis [1]; orally, 1.0 ppm in feed) was 10, the Viability (Staphylococcus epidermis [1]; orally, 10 ppm in feed) was 75% and the “Mortality during Cultivation” value (Staphylococcus epidermis [1]; orally, 10 ppm in feed) was 5. For the same compound, the Viability (Staphylococcus epidermis [1]; orally, 100 ppm in feed) was 80%, the “Mortality during Cultivation” value (Staphylococcus epidermis [1]; orally, 100 ppm in feed) was 4 and the Viability (Staphylococcus epidermis [1]; to fish tanks, 0.01 ppm) was 55%. For the same compound, the “Mortality during Cultivation” value (Staphylococcus epidermis [1]; to fish tanks, 0.01 ppm) was 9, the Viability (Staphylococcus epidermis [1]; to fish tanks, 0.1 ppm) was 55% and the “Mortality during Cultivation” value (Staphylococcus epidermis [1]; to fish tanks, 0.1 ppm) was 9. The Viability (Staphylococcus epidermis [1]; to fish tanks, 1.0 ppm) was 80%, the “Mortality during Cultivation” value (Staphylococcus epidermis [1]; to fish tanks, 1.0 ppm) was 4 and the Viability (Staphylococcus epidermis [1]; to fish tanks, 10 ppm) was 80%. The “Mortality during Cultivation” value (Staphylococcus epidermis [1]; to fish tanks, 10 ppm) was 4, the “Infection value by MABV” value (marine birnavirus (MABV); 0 days after inoculation) was 4.3* Log TCID50/mL and the “Infection value by MABV” value (marine birnavirus (MABV); 1 day after inoculation) was 3.8 Log TCID50/mL. For the same compound, the “Infection value by MABV” value (marine birnavirus (MABV); 3 days after inoculation) was 3.5 Log TCID50/mL, the “Infection value by MABV” value (marine birnavirus (MABV); 5 days after inoculation) was 2.3 Log TCID50/mL and the “Infection value by MABV” value (marine birnavirus (MABV); 7 days after inoculation) was <1.8 Log TCID50/mL. The “effect on MABV within culture cell system” value (marine birnavirus (MABV); reacted 30 min before inoculation) was “inactivated”, the Viability (Staphylococcus sp. [2]; orally, 0.1 ppm in feed) was 50% and the “Mortality during Cultivation” value (Staphylococcus sp. [2]; orally, 0.1 ppm in feed) was 10. For the same compound, the Viability (Staphylococcus sp. [2]; orally, 1.0 ppm in feed) was 55%, the “Mortality during Cultivation” value (Staphylococcus sp. [2]; orally, 1.0 ppm in feed) was 9 and the Viability (Staphylococcus sp. [2]; orally, 10 ppm in feed) was 90%. For the same compound, the “Mortality during Cultivation” value (Staphylococcus sp. [2]; orally, 10 ppm in feed) was 2, the Viability (Staphylococcus sp. [2]; orally, 100 ppm in feed) was 90% and the “Mortality during Cultivation” value (Staphylococcus sp. [2]; orally, 100 ppm in feed) was 2. For the same compound, the Viability (Staphylococcus sp. [2]; to fish tanks, 0.01 ppm) was 60%, the “Mortality during Cultivation” value (Staphylococcus sp. [2]; to fish tanks, 0.01 ppm) was 8 and the Viability (Staphylococcus sp. [2]; to fish tanks, 0.1 ppm) was 65%. For the same compound, the “Mortality during Cultivation” value (Staphylococcus sp. [2]; to fish tanks, 0.1 ppm) was 7, the Viability (Staphylococcus sp. [2]; to fish tanks, 1.0 ppm) was 95% and the “Mortality during Cultivation” value (Staphylococcus sp. [2]; to fish tanks, 1.0 ppm) was 1. The Viability (Staphylococcus sp. [2]; to fish tanks, 10 ppm) was 90%, the “Mortality during Cultivation” value (Staphylococcus sp. [2]; to fish tanks, 10 ppm) was 2 and the Viability (Pseudomonas sp. [3]; orally, 0.1 ppm in feed) was 60%. For the same compound, the “Mortality during Cultivation” value (Pseudomonas sp. [3]; orally, 0.1 ppm in feed) was 8, the Viability (Pseudomonas sp. [3]; [7]) was 55% and the “Mortality during Cultivation” value (Pseudomonas sp. [3]; [7]) was 9. For the same compound, the Viability (Pseudomonas sp. [3]; [8]) was 90%, the “Mortality during Cultivation” value (Pseudomonas sp. [3]; [8]) was 2 and the Viability (Pseudomonas sp. [3]; [9]) was 90%. For the same compound, the “Mortality during Cultivation” value (Pseudomonas sp. [3]; [9]) was 2, the Viability (Pseudomonas sp. [3]; [10]) was 60% and the “Mortality during Cultivation” value (Pseudomonas sp. [3]; [10]) was 8. For the same compound, the Viability (Pseudomonas sp. [3]; [11]) was 70%, the “Mortality during Cultivation” value (Pseudomonas sp. [3]; [11]) was 6 and the Viability (Pseudomonas sp. [3]; [12]) was 90%. The “Mortality during Cultivation” value (Pseudomonas sp. [3]; [12]) was 2, the Viability (Pseudomonas sp. [3]; to fish tanks, 10 ppm) was 90% and the “Mortality during Cultivation” value (Pseudomonas sp. [3]; to fish tanks, 10 ppm) was 2. For the same compound, the Viability (Vibrio anguillarum; [13]) was 50%, the Viability (Vibrio anguillarum; [14]) was 74% and the Viability (Vibrio anguillarum; [15]) was 84%. It also gave a Viability (Vibrio anguillarum; [16]) of 86%, a Viability (Streptococcus sp.; [13]) of 44% and a Viability (Streptococcus sp.; [14]) of 66%. It also gave a Viability (Streptococcus sp.; [15]) of 72%, a Viability (Streptococcus sp.; [16]) of 82% and a Viability (Staphylococcus epidermis [4]; [13]) of 36%. For the same compound, the Viability (Staphylococcus epidermis [4]; [14]) was 63%, the Viability (Staphylococcus epidermis [4]; [15]) was 64% and the Viability (Staphylococcus epidermis [4]; [16]) was 86%. It also gave a Viability (Staphylococcus sp. [5]; [13]) of 48%, a Viability (Staphylococcus sp. [5]; [14]) of 70% and a Viability (Staphylococcus sp. [5]; [15]) of 78%. The Viability (Staphylococcus sp. [5]; [16]) was 88%, the Viability (Edwardsiella tarda; [13]) was 52% and the Viability (Edwardsiella tarda; [14]) was 62%. For the same compound, the Viability (Edwardsiella tarda; [15]) was 68%, the Viability (Edwardsiella tarda; [16]) was 88% and the Viability (Pseudomonas sp. [6]; [13]) was 52%. For the same compound, the Viability (Pseudomonas sp. [6]; [14]) was 78%, the Viability (Pseudomonas sp. [6]; [15]) was 86% and the Viability (Pseudomonas sp. [6]; [16]) was 84%.
